Results: US9983200B2, “Compositions and methods for predicting age of onset of a lysosomal storage disease or a disease associated with a lysosomal defect” (The United States of America, as represented by the …, priority 2013, dated 2018)
“Also recorded” adds a separate entry of the source.

How the values were obtained:
[1] = system: fibroblasts isolated from an individual with NPC1 disease (NPC-25); test: LysoTracker Red staining quantified by FACS in NPC1 patient fibroblasts; assay type: cell-based, human; settings: for LysoTracker Red staining intensity (NPC1-associated cholesterol storage defects): NPC-25 cells; for increased LysoTracker staining in NPC1 patient fibroblasts: Example 2, FIGS. 8 and 9; for fold change in fluorescence (stained/unstained): NPD patient samples, Example 1, FIGS. 4, 5A, 5B; for normalizing fold-change in fluorescence in cells of NPD subjects: in vitro
Protocol: (D) Bar graphs showing the percentage change of LysoTracker (y-axis) staining intensity in untreated NPC-25 cells (blue bar, set to 100%) as compared to NPC25 cells treated with MβCD, α-T or δ-T (green bars). […] MβCD (Sigma-Aldrich, St. Louis, Mo. cat. #C4555) was resuspended in sterile H2O to a 1 mM stock solution, while α-T and δ-T were dissolved in DMSO to 40 μM, therefore the untreated controls were no drug added for methyl-β-cyclodextrin treatment, and DMSO only added for α-T and δ-T treatment. Statistical analyses performed using Prism (GraphPad).
Cells were cultured in DMEM with fetal bovine serum, L-glutamine, and antibiotics at 5% CO2 in a 37° C. incubator. Cell staining was carried out as follows: Lysotracker-Red Staining Protocol: • Day1—Change media 24 hours before FACS analysis, if treating cells with methyl beta cyclodextrin add the drug as well. • Day2—Note: WORK IN THE DARK, (PROTECT TUBES FROM THE LIGHT while using lysotracker-red) • Dilute LYSOTRACKER-red (1:1000) for a final concentration of 1 μM with culture media. • Incubate cells with lysotracker in the incubator (37° C.) for 30 minutes. • Aspirate media and wash twice with 1×PBS (2 mls each time). • Add 300 μls of Trypsin • Resuspend cells into 5 mls of media and centrifuge at 1000 rpm for 10 minutes in order to obtain pellet. • Resuspend the pellet into 500 uls of media and transfer to FACS vials at 4° C. in the dark. • Perform FACS analysis.
The fluorescence of the cell samples was quantified before and after staining and the fold change in fluorescence was calculated as the ratio of fluorescent intensity after dye/cell autofluorescence. This change was then plotted as a function of time.
Cells were plated onto 60 mm tissue culture dishes and cultured to 70-80% confluency. Media were replaced 24 h prior to analysis. On the day of analysis, cells were incubated at 37° C. for 30 min in fresh media containing 1 μM LysoTracker Red dye (LysoTracker) in 3 mL medium/60 mm dish. Cells were then given two PBS washes, trypsinized, pelleted and resuspended in 500 μL medium. FACS data were collected on 10,000 cells using a FACSCalibur (Becton Dickinson Biosciences, Franklin Lakes, N.J.) equipped with Cell Quest software and analyzed using FlowJo (Tree Star). Fold change in LysoTracker staining was calculated as the ratio of geometric means of stained/unstained samples. Duplicate biological replicates were analyzed on three different days, totaling 6 independent samples per cell line.

cultured cells = settings: cited from earlier work
[2] = system: fibroblasts (NPC1, NPC2, Wolman, Batten, Fabry, Farber, Niemann-Pick A, Sanfilippo type B, Tay-Sachs diseases); settings: 40 μM, fibroblasts of NPC1, NPC2, Wolman; cited from earlier work
[3] = system: control fibroblasts (CTL1); test: LysoTracker Red staining quantified by FACS in control (wild type) fibroblasts; assay type: cell-based, human; settings: wild type samples, Example 1, FIGS. 4, 5A
Protocol: (A, B) Histograms of FACS analysis of control fibroblasts (A, CTL1) and fibroblasts isolated from an individual with NPC1 disease (B, NPC-25). […] Pink line indicates distribution of unstained cells; blue line indicates LysoTracker-stained cells transfected with an empty control vector (pLenti6.2 Vector/V5 DEST, Invitrogen); green line indicates LysoTracker-stained cells transfected with a human NPC1 cDNA expression vector (Origene, Rockville, Md.; cat. #SC120010). At 72 hours post-transfection, cells were stained with LysoTracker Red dye and analyzed by FACS. […]
The fluorescence of the cell samples was quantified before and after staining and the fold change in fluorescence was calculated as the ratio of fluorescent intensity after dye/cell autofluorescence. […]
Cells were plated onto 60 mm tissue culture dishes and cultured to 70-80% confluency. […] FACS data were collected on 10,000 cells using a FACSCalibur (Becton Dickinson Biosciences, Franklin Lakes, N.J.) equipped with Cell Quest software and analyzed using FlowJo (Tree Star). Fold change in LysoTracker staining was calculated as the ratio of geometric means of stained/unstained samples. Duplicate biological replicates were analyzed on three different days, totaling 6 independent samples per cell line.

[4] = system: fibroblasts isolated from an individual with NPC1 disease (NPC-25); test: LysoTracker Red staining quantified by FACS in NPC1 patient fibroblasts; assay type: cell-based, human; settings: NPC4 cells

Cc1c(C)c2c(c(C)c1O)CC[C@@](C)(CCC[C@H](C)CCC[C@H](C)CCCC(C)C)O2 [α-T, α-tocopherol]
LysoTracker Red staining intensity (NPC1-associated cholesterol storage defects) ([1]; 40 μM α-T for 72 hours, vs DMSO only): not

OC[C@H]1O[C@@H]2O[C@H]3[C@H](O)[C@@H](O)[C@@H](O[C@H]4[C@H](O)[C@@H](O)[C@@H](O[C@H]5[C@H](O)[C@@H](O)[C@@H](O[C@H]6[C@H](O)[C@@H](O)[C@@H](O[C@H]7[C@H](O)[C@@H](O)[C@@H](O[C@H]8[C@H](O)[C@@H](O)[C@@H](O[C@H]1[C@H](O)[C@H]2O)O[C@@H]8CO)O[C@@H]7CO)O[C@@H]6CO)O[C@@H]5CO)O[C@@H]4CO)O[C@@H]3CO [β-cyclodextrin]
removal of cholesterol from cultured cells (cultured cells): remove cholesterol

Cc1cc(O)cc2c1O[C@](C)(CCC[C@H](C)CCC[C@H](C)CCCC(C)C)CC2 [δ-T, δ-tocopherol]
increased LysoTracker staining in NPC1 patient fibroblasts [1]: lessened
LysoTracker Red staining intensity (NPC1-associated cholesterol storage defects) ([1]; 40 μM δ-T for 72 hours, vs DMSO only): relieved NPC1-associated cholesterol storage defects
lysosomal storage defects (including LysoTracker staining) [2]: reduced lysosomal storage defects

Methyl-β-cyclodextrin [MβCD]
increased LysoTracker staining in NPC1 patient fibroblasts [1]: lessened
LysoTracker Red staining intensity (NPC1-associated cholesterol storage defects) ([1]; 300 μM MβCD for 24 hours, vs untreated cells (100%)): relieved NPC1-associated cholesterol storage defects
fold change in fluorescence (stained/unstained) [1]: reduced
fold change in fluorescence (stained/unstained) [3]: reduced
removal of cholesterol from cultured cells (cultured cells): remove cholesterol; also recorded: more efficient than β-cyclodextrin

Tocopherol
fold change in fluorescence (stained/unstained) [1]: effective in reducing the fold change in fluorescence
normalizing fold-change in fluorescence in cells of NPD subjects [1]: useful in normalizing fold-change in fluorescence

cyclodextrin
normalizing fold-change in fluorescence in cells of NPD subjects [1]: useful in normalizing fold-change in fluorescence; also recorded: normalize the fold-change in fluorescence
fluorescence values by FACS (FIG. 1A) [4]: corrected
